Reference: paper PMC12627627 (Nature Communications, 2025)
Each block holds one compound with its values, some of them ahead of it.

Legend:
Assay type in all cases: binding
R12 domain of RyR1 = target: T1, R12 domain of RyR1 (Homo sapiens, UniProt P21817); assay: ITC, R12 domain of RyR1; conditions: AMP-PCP or ADP alone, without DAN/AZU (Supplementary Fig. 1)
T1 construct: RyR1 854–1054, RyR2 865–1065, RyR3 853–1053; made in house; host or cells: E. coli BL21 (DE3)
T1 sequence (P21817 854-1054): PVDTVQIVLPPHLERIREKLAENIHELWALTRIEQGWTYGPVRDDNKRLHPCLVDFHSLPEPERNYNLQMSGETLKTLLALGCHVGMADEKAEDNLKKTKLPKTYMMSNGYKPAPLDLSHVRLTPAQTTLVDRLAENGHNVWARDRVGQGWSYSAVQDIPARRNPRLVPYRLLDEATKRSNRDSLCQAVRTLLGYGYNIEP
Method: (§1) The plasmids were subsequently transformed into E. coli BL21 (DE3) cells (NEB, USA) and cultured in Luria-Bertani (LB) media at 37 °C. Protein expression was induced with 0.4 mM isopropyl β-D-thiogalactoside (IPTG) when the optical density (OD)600 reached ~0.8, followed by incubation at 18 °C for 12 h. The cells were harvested via centrifugation at 5,000 × g for 15 min at 4 °C and homogenized in Buffer A (10 mM HEPES, pH 7.4, 250 mM KCl) supplemented with 25 µg/mL DNaseI, 25 µg/mL lysozyme, 1 mM phenylmethylsulfonyl fluoride (PMSF), and 20 mM imidazole. The homogenate was centrifuged at 12,000 × g for 45 min, and the supernatant was filtered through a syringe filter (0.22 µm).
(§2) Purified R12 domain protein from the three RyR isoforms, fused with hexahistidine-tagged MBP (HMT-R12) was dialyzed overnight at 4 °C in ITC buffer (200 mM HEPES, pH 7.4, 150 mM KCl). ITC experiments were performed using a PEAQ-ITC instrument (Malvern, UK) at 25 °C with a stirring speed of 750 rpm. […] For the ternary binding experiments, 500 μM or 5 mM AMP-PCP/ADP was preincubated with both the titrants and titrates. […] The data was fit to a one-site fitting model after background buffer subtraction. The RyR1 R12 mutants were generated using a QuikChange mutagenesis kit (Stratagene) according to the manufacturer’s protocol, with primer sequences listed in Supplementary Table 3.

R12 domain of RyR3 = target: T2, R12 domain of RyR3 (Homo sapiens, UniProt Q15413); assay: ITC, R12 domain of RyR3
T2 construct: RyR1 854–1054, RyR2 865–1065, RyR3 853–1053; made in house; host or cells: E. coli BL21 (DE3)
T2 sequence (Q15413 853-1053): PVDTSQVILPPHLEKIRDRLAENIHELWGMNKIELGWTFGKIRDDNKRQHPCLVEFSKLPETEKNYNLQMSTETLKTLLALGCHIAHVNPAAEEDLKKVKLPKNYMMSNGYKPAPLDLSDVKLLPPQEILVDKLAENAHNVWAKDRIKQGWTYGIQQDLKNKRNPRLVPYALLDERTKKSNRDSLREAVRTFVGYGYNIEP
Method: as §1, §2

R12 domain of RyR2 = target: T3, R12 domain of RyR2 (Homo sapiens, UniProt Q92736); assay: ITC, R12 domain of RyR2; conditions: absence or presence of AMP-PCP or ADP
T3 construct: RyR1 854–1054, RyR2 865–1065, RyR3 853–1053; made in house; host or cells: E. coli BL21 (DE3)
T3 sequence (Q92736 865-1065): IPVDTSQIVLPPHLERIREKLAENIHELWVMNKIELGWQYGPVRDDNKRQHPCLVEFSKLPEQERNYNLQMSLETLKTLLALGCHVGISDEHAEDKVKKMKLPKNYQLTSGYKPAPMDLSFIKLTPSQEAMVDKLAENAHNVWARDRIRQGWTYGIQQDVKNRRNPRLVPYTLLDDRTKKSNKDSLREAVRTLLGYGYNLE
Method: as §1, §2

binding of nucleotide alone by ITC (R12 domain of RyR1): did not exhibit detectable binding
SMILES: Nc1ncnc2c1ncn2[C@@H]1O[C@H](COP(=O)(O)OP(=O)(O)O)[C@@H](O)[C@H]1O [ADP]

SMILES: Nc1ncnc2c1ncn2[C@@H]1O[C@H](COP(=O)(O)OP(=O)(O)CP(=O)(O)O)[C@@H](O)[C@H]1O [AMP-PCP]
binding of nucleotide alone by ITC (R12 domain of RyR1): did not exhibit detectable binding

Kd (R12 domain of RyR3; RyR3 R12 + 500 µM ADP): 259 ± 31 nM
No of Sites (N) (R12 domain of RyR3; RyR3 R12 + 500 µM ADP): 0.461 ± 0.26
ΔH (R12 domain of RyR3; RyR3 R12 + 500 µM ADP): -5.53 ± 0.34 kcal/mol
−TΔS (R12 domain of RyR3; RyR3 R12 + 500 µM ADP): -3.46 kcal/mol
Kd (R12 domain of RyR3; RyR3 R12 + 500 µM AMP-PCP): 72 ± 20 nM
No of Sites (N) (R12 domain of RyR3; RyR3 R12 + 500 µM AMP-PCP): 0.726 ± 0.53
ΔH (R12 domain of RyR3; RyR3 R12 + 500 µM AMP-PCP): -8.63 ± 0.14 kcal/mol
−TΔS (R12 domain of RyR3; RyR3 R12 + 500 µM AMP-PCP): -1.11 kcal/mol
Kd (R12 domain of RyR3; RyR3 R12 + 5 mM ADP): 60 ± 9 nM
No of Sites (N) (R12 domain of RyR3; RyR3 R12 + 5 mM ADP): 0.606 ± 0.23
ΔH (R12 domain of RyR3; RyR3 R12 + 5 mM ADP): -8.21 ± 0.75 kcal/mol
−TΔS (R12 domain of RyR3; RyR3 R12 + 5 mM ADP): -1.64 kcal/mol
Kd (R12 domain of RyR3; RyR3 R12 + 5 mM AMP-PCP): 26 ± 10 nM
No of Sites (N) (R12 domain of RyR3; RyR3 R12 + 5 mM AMP-PCP): 0.842 ± 0.36
ΔH (R12 domain of RyR3; RyR3 R12 + 5 mM AMP-PCP): -8.07 ± 0.10 kcal/mol
−TΔS (R12 domain of RyR3; RyR3 R12 + 5 mM AMP-PCP): -2.27 kcal/mol
No of Sites (N) (R12 domain of RyR3; RyR3 R12, no nucleotide): 0.651 ± 0.11
ΔH (R12 domain of RyR3; RyR3 R12, no nucleotide): -80 kcal/mol
−TΔS (R12 domain of RyR3; RyR3 R12, no nucleotide): 75.60 kcal/mol
Kd (R12 domain of RyR3; RyR3 R12, no nucleotide, ITC 25 °C): 235000 ± 122000 nM
SMILES: O=C1CN(/N=C/c2ccc(-c3ccc([N+](=O)[O-])cc3)o2)C(O)=N1 [DAN, Dantrolene]
binding to RyR2 R12 domain by ITC (R12 domain of RyR2): neither DAN nor AZU exhibited detectable binding
